Paper PMC7509987 (Biochemistry, 2020)
Read-outs that look alike come from different tables or passages of the source.

Key:
GPX = conditions: great excess of 4-hydroxynonenal (1 mM); cited from earlier work
DmTrxR-CCS [1] = target: T1, DmTrxR-CCS (Drosophila melanogaster, UniProt P91938); assay: NADPH-pre-reduced enzyme; assay type: biochemical; conditions: n = 3
Target sequence in this assay (P91938 106-596): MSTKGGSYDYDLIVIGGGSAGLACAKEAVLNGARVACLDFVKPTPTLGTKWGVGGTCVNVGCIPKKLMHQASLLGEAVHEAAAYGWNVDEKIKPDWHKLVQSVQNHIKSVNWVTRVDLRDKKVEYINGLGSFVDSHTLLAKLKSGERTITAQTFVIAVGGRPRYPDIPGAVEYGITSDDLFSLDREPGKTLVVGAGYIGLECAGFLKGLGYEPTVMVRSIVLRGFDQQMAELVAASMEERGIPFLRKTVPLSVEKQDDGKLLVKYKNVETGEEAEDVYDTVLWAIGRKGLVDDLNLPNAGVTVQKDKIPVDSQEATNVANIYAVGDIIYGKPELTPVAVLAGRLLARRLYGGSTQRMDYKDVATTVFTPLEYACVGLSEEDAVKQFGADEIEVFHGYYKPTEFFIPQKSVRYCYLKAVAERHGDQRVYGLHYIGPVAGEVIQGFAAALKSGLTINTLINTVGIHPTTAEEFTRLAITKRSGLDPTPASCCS

mTrxR-C(αMe)UG [2] = target: mTrxR-C(αMe)UG (Mus musculus, UniProt Q9JLT4); assay: Inhibition of Trx-reductase activity by electrophiles; assay type: biochemical
Sequence of mTrxR-C(αMe)UG (Mus musculus, UniProt Q9JLT4) (Q9JLT4 35-524): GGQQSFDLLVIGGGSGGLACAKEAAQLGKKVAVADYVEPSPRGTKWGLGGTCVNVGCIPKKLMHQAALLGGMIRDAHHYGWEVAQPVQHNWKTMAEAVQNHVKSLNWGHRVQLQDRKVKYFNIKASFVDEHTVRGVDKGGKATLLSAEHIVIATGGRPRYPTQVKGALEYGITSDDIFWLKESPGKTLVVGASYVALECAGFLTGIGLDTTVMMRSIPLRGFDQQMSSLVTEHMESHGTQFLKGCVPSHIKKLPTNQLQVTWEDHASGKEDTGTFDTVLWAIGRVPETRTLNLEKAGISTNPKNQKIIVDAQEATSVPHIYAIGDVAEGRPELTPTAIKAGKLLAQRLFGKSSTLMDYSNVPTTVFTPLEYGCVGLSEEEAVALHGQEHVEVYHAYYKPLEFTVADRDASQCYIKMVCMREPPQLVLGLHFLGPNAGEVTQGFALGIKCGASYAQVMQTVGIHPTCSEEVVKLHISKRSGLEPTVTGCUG

mTrxR-CUG = mTrxR-CUG (Mus musculus, UniProt Q9JLT4); assay: as above; assay type: biochemical
Sequence of mTrxR-CUG (Q9JLT4 35-524): as above

DmTrxR-CCS [3] = target: T1, DmTrxR-CCS; assay: as above; assay type: biochemical, D. melanogaster; conditions: 7 μM acrolein, pH 7, 10 min, 22 °C
Target sequence in this assay (P91938 1-491 isoform P91938-2): as the sequence (P91938 106-596) above, with S2A, T3P, K4V, G5Q counted along it

[4] = Solubility in aqueous solutions; assay type: physicochemical
mTrxR-C(αMe)UG [5] = assay type: biochemical; conditions: read-out: KM (μM), Table 3, DTNB as substrate; n = 3
mTrxR-C(αMe)UG [6] = assay type: biochemical; conditions: read-out: KM (μM), Table 4, selenocysteamine as substrate; n = 3

For `CCCCCC(O)/C=C/C=O` (stereo not drawn) [4-Hydroxynonenal, 4-hydroxynonenal], the “inhibition of GPX” value (GPX) is listed as “could not be completely inhibited”.
With `C=CC=O` [Acrolein, acrolein (prop-2-enal)] the IC50 (DmTrxR-CCS [1]) was 7 µM.
For `C=CC=O` [Acrolein, acrolein], the “inhibition of Trx-reductase activity” value (mTrxR-C(αMe)UG [2]; 800 nM acrolein, pH 5.5, 10 min, 22 °C) was 75-85%, the “inhibition of Trx-reductase activity” value (mTrxR-CUG; 2.5 μM acrolein, pH 4.6, 10 min, 22 °C) was 75-85% and the “inhibition of Trx-reductase activity” value (DmTrxR-CCS [3]) was 75-85%.
Work on `O=C/C=C/c1ccccc1` [Cinnamaldehyde] yielded an IC50 (mTrxR-C(αMe)UG [2]) of 230 µM and an IC50 (mTrxR-CUG) of 225 µM.
For `COc1cc(/C=C/C(=O)CC(=O)/C=C/c2ccc(O)c(OC)c2)ccc1O` [Curcumin, curcumin], the Trx-reductase activity remains (mTrxR-C(αMe)UG [2]; at 100 uM curcumin, mutant mTrxR) was ~ 65%, the solubility [4] was at most 100 µM and the IC50 (mTrxR-CUG) was 34 µM.
For `O=C(O)c1cc(SSc2ccc([N+](=O)[O-])c(C(=O)O)c2)ccc1[N+](=O)[O-]` [DTNB, 5,5′-dithiobis(2-nitrobenzoic acid)], the Km (mTrxR-C(αMe)UG [5]) was 5 ± 0.9 µM.
`NCC[Se][Se]CCN` [selenocysteamine, selenocysteamine (diselenide, used as dichloride; selenocystamine)] showed a Km (mTrxR-C(αMe)UG [6]) of 92 ± 0.9 µM.
